Like-named read-outs stand apart in the source and are kept apart here. Starred links: 1 amine or outer side, 2 acyl side, 3 side chain; linkers in the order of their positions; H or OH if unused. Non-standard residues stand in square brackets, D forms with d. Groups on a side chain read outwards from the residue. No end group written: not given here. *: point of attachment. C20 diacid = O=C(O)CCCCCCCCCCCCCCCCCCC(=O)*; C18 diacid = O=C(O)CCCCCCCCCCCCCCCCC(=O)*; γGlu = O=C(O)[C@H](CCC(=O)[*:2])N[*:1]; εLys = N[C@@H](CCCCN[*:1])C(=O)[*:2]; AEEA = NCCOCCOCC(=O)O; Aib = CC(C)(N)C(=O)O
Tests used:
Type in all cases: cell-based
Conditions in all cases: CreLuc reporter gene assay
hNPY2R = biological target: T1, hNPY2R (Homo sapiens, UniProt P49146); test: hNPY2R CreLuc reporter gene assay in 0.5% and 100% plasma
T1 construct: expressed in transfected cells; host or cells: HEK-293 cells carrying a CRE-luciferase reporter gene
T1 sequence (P49146 1-381): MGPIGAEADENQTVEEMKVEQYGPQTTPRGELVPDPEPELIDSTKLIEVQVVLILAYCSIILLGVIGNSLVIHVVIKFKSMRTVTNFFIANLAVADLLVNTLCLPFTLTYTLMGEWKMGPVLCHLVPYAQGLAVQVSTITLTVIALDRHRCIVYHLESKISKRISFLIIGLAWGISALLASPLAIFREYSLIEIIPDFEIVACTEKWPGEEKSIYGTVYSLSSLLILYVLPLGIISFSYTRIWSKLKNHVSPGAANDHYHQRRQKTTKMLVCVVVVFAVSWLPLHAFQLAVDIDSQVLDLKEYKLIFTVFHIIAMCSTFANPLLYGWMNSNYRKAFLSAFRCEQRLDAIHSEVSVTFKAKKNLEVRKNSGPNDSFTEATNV
Description: Example 1: hGLPR/hGIPR/hNPY2R CreLuc Assay in 0.5% and 100% Plasma
CHO and HEK-293 recombinant cell lines express a luciferase reporter gene under control of the cAMP responsive element (CRE). As a second recombinant protein the GLP-1 and NPY2 receptors were expressed in the reporter gene HEK cells, and the GIP receptor was expressed in the reporter gene CHO cells, respectively. Stimulation of these recombinant cells with an agonist leads to an increase of intracellular cAMP levels. In the presence of cAMP, the transcription factor CRE binding protein (CREB) binds to the CRE and to the CREB binding protein (CBP), which leads to transcription of the luciferase reporter gene. Peptides upon serial-dilution in 100% DMSO were transferred into 384-well assay plates with 5 μl pre-dispensed assay buffer (1×HBSS, 20 mM HEPES, pH7.4 supplemented with 0.5% human plasma) using acoustic dispensing on a Labcyte ECHO. Cryo-preserved transgenic reporter gene cells were thawed in assay buffer. 20 μl (10.000 cells/well) were added to the plate with the peptides and incubated for 4 hours at 37° C. in a humidified incubator. Following incubation, assay plates are equilibrated to room temperature, followed by addition of 25 μl of Bright-GIo™ Luciferase reagent, incubation at room temperature for 10 minutes and analysis of luminescence (Envision Reader). Concentration response evaluation of compounds was performed with 8 concentrations of peptides (covering four decades). EC50 values were calculated by non-linear regression using sigmoid concentration-response with variable slope. The same assays were run in the presence of 100% plasma with no additional buffer constituents.

hGLP1R = biological target: T2, hGLP1R (Homo sapiens, UniProt P43220); test: hGLP1R CreLuc reporter gene assay in 0.5% and 100% plasma
T2 construct: expressed in transfected cells; host or cells: HEK-293 cells carrying a CRE-luciferase reporter gene
Outline: (§1)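 HEK-293 cells co-expressing GLP-1 or NPY2 receptor and CHO cells expressing GIP receptor, each carrying a CRE-driven luciferase reporter, were stimulated with peptides for 4 hours at 37 °C. Luminescence was read after Bright-Glo addition. EC50 came from 8-point, four-decade curves fitted by variable-slope non-linear regression.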

hGIPR = biological target: T3, hGIPR (Homo sapiens, UniProt P48546); test: hGIPR CreLuc reporter gene assay in 0.5% and 100% plasma
T3 construct: expressed in transfected cells; host or cells: CHO cells carrying a CRE-luciferase reporter gene
T3 sequence (P48546 22-466): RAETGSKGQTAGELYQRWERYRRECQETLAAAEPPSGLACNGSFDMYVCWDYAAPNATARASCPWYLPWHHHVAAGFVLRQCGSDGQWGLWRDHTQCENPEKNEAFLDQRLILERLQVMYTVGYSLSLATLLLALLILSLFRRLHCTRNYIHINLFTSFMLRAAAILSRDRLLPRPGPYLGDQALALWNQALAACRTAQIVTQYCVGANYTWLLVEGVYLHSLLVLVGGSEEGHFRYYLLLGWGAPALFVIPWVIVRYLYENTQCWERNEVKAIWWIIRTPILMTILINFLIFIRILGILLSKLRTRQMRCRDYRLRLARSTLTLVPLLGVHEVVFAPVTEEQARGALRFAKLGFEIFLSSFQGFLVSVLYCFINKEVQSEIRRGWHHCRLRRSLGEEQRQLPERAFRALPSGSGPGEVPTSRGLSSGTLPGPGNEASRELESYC
Outline: as §1

[1] = 0.5% human plasma, read-out: hNPY2R 0.5% hP
[2] = 100% human plasma, read-out: hNPY2R 100% hP
[3] = 0.5% human plasma, read-out: hGLP1R 0.5% hP
[4] = 0.5% human plasma, read-out: hGIPR 0.5% hP
[5] = 100% human plasma, read-out: hGIPR 100% hP

T2 sequence (P43220 24-463): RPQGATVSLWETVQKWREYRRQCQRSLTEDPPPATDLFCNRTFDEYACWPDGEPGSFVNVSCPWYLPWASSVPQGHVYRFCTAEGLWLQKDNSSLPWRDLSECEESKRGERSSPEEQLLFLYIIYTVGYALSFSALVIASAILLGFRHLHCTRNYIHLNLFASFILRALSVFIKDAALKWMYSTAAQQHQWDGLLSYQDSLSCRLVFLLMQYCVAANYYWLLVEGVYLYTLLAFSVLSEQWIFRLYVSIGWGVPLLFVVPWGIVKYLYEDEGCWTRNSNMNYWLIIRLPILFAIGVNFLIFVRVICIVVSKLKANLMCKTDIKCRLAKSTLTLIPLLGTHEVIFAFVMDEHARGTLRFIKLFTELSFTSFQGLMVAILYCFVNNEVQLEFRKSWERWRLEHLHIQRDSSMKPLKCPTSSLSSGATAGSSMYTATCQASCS

Substance | EC50 (hNPY2R; [1]) | EC50 (hNPY2R; [2]) | EC50 (hGLP1R; [3]) | EC50 (hGIPR; [4]) | EC50 (hGIPR; [5]) | EC50 (hGLP1R; 100% human plasma, read-out: hGLP1R 100% hP)
H-Y[Aib]EGTFTSDYSI[Aib]LEKQAQ[dD]AFVEWLIK([εLys-γGlu-γGlu-γGlu-γGlu-γGlu-γGlu-C20 diacid])GGPSSGASLRHYYNWLTRQRY-NH2 [Compound 211, Y-Aib-E-G-T-F-T-S-D-Y-S-I-Aib-L-E-K-Q-A-Q-DAsp-A-F-V-E-W-L-I-K(1,3)-GGPSSGASLRHYYNWLTRQRY-NH2.C20DA-gGlu-gGlu-gGlu-gGlu-gGlu-gGlu-eLys(1,2)] | 11.2 nM | 56.3 nM | 0.74 nM | – | – | –
H-Y[Aib]EGTFTSDYSI[Aib]LEKQAQ[Aib]EFVEWLIK([εLys-γGlu-γGlu-γGlu-γGlu-γGlu-γGlu-C20 diacid])GGPSSGASLRHYYNWLTRQRY-NH2 [Compound 215, Y-Aib-E-G-T-F-T-S-D-Y-S-I-Aib-L-E-K-Q-A-Q-Aib-E-F-V-E-W-L-I-K(1,3)-GGPSSGASLRHYYNWLTRQRY-NH2.C20DA-gGlu-gGlu-gGlu-gGlu-gGlu-gGlu-eLys(1,2)] | 12.4 nM | – | – | 0.5 nM | 2.94 nM | –
Y[Aib]EGTFTSDYSI[Aib]LEKQAE[Aib]AFVQWLIK([AEEA-AEEA-γGlu-γGlu-γGlu-γGlu-C20 diacid])GGPSEGASLRHYYNWLTRQRY-NH2 [Compound 219, Y-Aib-E-G-T-F-T-S-D-Y-S-I-Aib-L-E-K-Q-A-E-Aib-A-F-V-Q-W-L-I-K(1,3)-GGPSEGASLRHYYNWLTRQRY-NH2.C20DA-gGlu-gGlu-gGlu-gGlu-OEG-OEG(1,2)] | 12.8 nM | 43.4 nM | – | 0.46 nM | 2.43 nM | –
H-Y[Aib]EGTFTSDYSI[Aib]LEKQAQ[Aib]AFVQWLIK([εLys-γGlu-γGlu-γGlu-γGlu-γGlu-γGlu-C20 diacid])GGPSYYVSLRHYYNWLTRQRY-NH2 [Compound 19, Y-Aib-E-G-T-F-T-S-D-Y-S-I-Aib-L-E-K-Q-A-Q-Aib-A-F-V-Q-W-L-I-K(1,3)-GGPSYYVSLRHYYNWLTRQRY-NH2.C20DA-gGlu-gGlu-gGlu-gGlu-gGlu-gGlu-eLys(1,2)] | – | 19.3 nM | 0.5 nM | – | – | 10.2 nM
H-Y[Aib]EGTFTSDYSI[Aib]LAAAAQ[Aib]AFVEWLIK([εLys-γGlu-γGlu-γGlu-γGlu-γGlu-γGlu-C20 diacid])GGPSSGASLRHYYNWLTRQRY-NH2 [Compound 20, Y-Aib-E-G-T-F-T-S-D-Y-S-I-Aib-L-A-A-A-A-Q-Aib-A-F-V-E-W-L-I-K(1,3)-GGPSSGASLRHYYNWLTRQRY-NH2.C20DA-gGlu-gGlu-gGlu-gGlu-gGlu-gGlu-eLys(1,2)] | 19.1 nM | – | – | 0.93 nM | – | –
H-Y[Aib]EGTFTSDYSI[Aib]LEKQAE[Aib]AFVEWLIK([AEEA-AEEA-γGlu-γGlu-γGlu-γGlu-C18 diacid])GGPSEGASLRHYYNWLTRQRY-NH2 [Compound 251, Y-Aib-E-G-T-F-T-S-D-Y-S-I-Aib-L-E-K-Q-A-E-Aib-A-F-V-E-W-L-I-K(1,3)-GGPSEGASLRHYYNWLTRQRY-NH2.C18DA-gGlu-gGlu-gGlu-gGlu-OEG-OEG(1,2)] | 20.6 nM | 48.7 nM | – | 0.16 nM | 0.98 nM | –
H-Y[Aib]EGTFTSDYSI[Aib]LEKQAQ[Aib]EFVEWLIK([AEEA-AEEA-γGlu-γGlu-γGlu-C20 diacid])GGPSEGASLRHYYNWLTRQRY-NH2 [Compound 273, Y-Aib-E-G-T-F-T-S-D-Y-S-I-Aib-L-E-K-Q-A-Q-Aib-E-F-V-E-W-L-I-K(1,3)-GGPSEGASLRHYYNWLTRQRY-NH2.C20DA-gGlu-gGlu-gGlu-OEG-OEG(1,2)] | 19.3 nM | – | – | 0.38 nM | 1.52 nM | –
H-Y[Aib]EGTFTSDYSI[Aib]LE[Aib]EAQ[Aib]KFVEWLIK([εLys-γGlu-γGlu-γGlu-γGlu-γGlu-γGlu-C20 diacid])GGPSSGASLRHYYNWLTRQRY-NH2 [Compound 16, Y-Aib-E-G-T-F-T-S-D-Y-S-I-Aib-L-E-Aib-E-A-Q-Aib-K-F-V-E-W-L-I-K(1,3)-GGPSSGASLRHYYNWLTRQRY-NH2.C20DA-gGlu-gGlu-gGlu-gGlu-gGlu-gGlu-eLys(1,2)] | 28.8 nM | 197 nM | 1.48 nM | – | – | –
H-Y[Aib]EGTFTSDYSI[Aib]LEKQAQ[Aib]AFVQWLIK([εLys-γGlu-γGlu-γGlu-γGlu-γGlu-γGlu-C20 diacid])GGPSEYVSLRHYYNWLTRQRY-NH2 [Compound 78, Y-Aib-E-G-T-F-T-S-D-Y-S-I-Aib-L-E-K-Q-A-Q-Aib-A-F-V-Q-W-L-I-K(1,3)-GGPSEYVSLRHYYNWLTRQRY-NH2.C20DA-gGlu-gGlu-gGlu-gGlu-gGlu-gGlu-eLys(1,2)] | 12.9 nM | 24.6 nM | – | 0.53 nM | – | –
H-Y[Aib]EGTFTSDYSI[Aib]LEKQAQ[dR]AFVEWLIK([εLys-γGlu-γGlu-γGlu-γGlu-γGlu-γGlu-C20 diacid])GGPSSGASLRHYYNWLTRQRY-NH2 [Compound 216, Y-Aib-E-G-T-F-T-S-D-Y-S-I-Aib-L-E-K-Q-A-Q-DArg-A-F-V-E-W-L-I-K(1,3)-GGPSSGASLRHYYNWLTRQRY-NH2.C20DA-gGlu-gGlu-gGlu-gGlu-gGlu-gGlu-eLys(1,2)] | – | 16.8 nM | 0.31 nM | – | – | –
H-Y[Aib]EGTFTSDYSI[Aib]LEKQAQ[Aib]EFVEWLIK([AEEA-AEEA-γGlu-γGlu-γGlu-C18 diacid])GGPESGASLRHYYNWLTRQRY-NH2 [Compound 81, Y-Aib-E-G-T-F-T-S-D-Y-S-I-Aib-L-E-K-Q-A-Q-Aib-E-F-V-E-W-L-I-K(1,3)-GGPESGASLRHYYNWLTRQRY-NH2.C18DA-gGlu-gGlu-gGlu-OEG-OEG(1,2)] | 11.1 nM | – | – | 0.27 nM | – | –
H-Y[Aib]EGTFTSDYSI[Aib]LEKQAQ[Aib]AFVEWLIK([εLys-γGlu-γGlu-γGlu-γGlu-γGlu-γGlu-C20 diacid])GGPSEGVSLRHYYNWLTRQRY-NH2 [Compound 241, Y-Aib-E-G-T-F-T-S-D-Y-S-I-Aib-L-E-K-Q-A-Q-Aib-A-F-V-E-W-L-I-K(1,3)-GGPSEGVSLRHYYNWLTRQRY-NH2.C20DA-gGlu-gGlu-gGlu-gGlu-gGlu-gGlu-eLys(1,2)] | 16.7 nM | – | – | 0.69 nM | 4.36 nM | –
H-Y[Aib]EGTFTSDYSI[Aib]LEKQAQ[Aib]AFVEWLIK([εLys-γGlu-γGlu-γGlu-γGlu-γGlu-γGlu-C20 diacid])GGPRYYASLRHYYNWLTRQRY-NH2 [Compound 62, Y-Aib-E-G-T-F-T-S-D-Y-S-I-Aib-L-E-K-Q-A-Q-Aib-A-F-V-E-W-L-I-K(1,3)-GGPRYYASLRHYYNWLTRQRY-NH2.C20DA-gGlu-gGlu-gGlu-gGlu-gGlu-gGlu-eLys(1,2)] | 13.6 nM | 40.5 nM | – | 0.48 nM | – | –
H-Y[Aib]EGTFTSDYSI[Aib]LEKQAQ[Aib]AFVQWLIK([εLys-γGlu-γGlu-γGlu-γGlu-γGlu-C20 diacid])GGPEEPASLRHYYNWLTRQRY-NH2 [Compound 67, Y-Aib-E-G-T-F-T-S-D-Y-S-I-Aib-L-E-K-Q-A-Q-Aib-A-F-V-Q-W-L-I-K(1,3)-GGPEEPASLRHYYNWLTRQRY-NH2.C20DA-gGlu-gGlu-gGlu-gGlu-gGlu-eLys(1,2)] | 13.7 nM | 78.9 nM | – | 0.29 nM | – | –
